Experimental data taken from PMC4110683 (Chemistry and physics of lipids, 2013).
≈ marks a conversion by molar mass, not a printed value. Where two headings read alike, the source gives them in different places.

Experiments:
[1] = test system: L. donovani promastigotes; conditions: cited from earlier work; for Effectiveness towards L. donovani / Motility of L. donovani promastigotes: in words; for Effectiveness towards L. donovani / IC50 / EC50 L. donovani promastigotes: ref Carballeira et al.; for Effectiveness towards L. donovani / EC50 L. donovani promastigotes: 2009; for IC50: read-out: IC50 L. donovani promastigotes, 2012; for Motility of L. donovani promastigotes: at levels of 100 μg/mL, ref Cunningham et al., 1972; for MIC L. donovani promastigotes: ref Chaudhuri et al., 1986
[2] = test system: BALB/c murine macrophages; conditions: read-out: Murine macrophages BALB/c IC50; ref Carballeira et al., 2012; cited from earlier work
M. smegmatis mc^2 155 = conditions: ref Morbidoni et al., 2006; cited from earlier work
PfFabZ [3] = target: T1, PfFabZ (Plasmodium falciparum, UniProt Q965D7); assay: Inhibition of PfFabZ; assay type: biochemical
T1 sequence (Q965D7 19-230): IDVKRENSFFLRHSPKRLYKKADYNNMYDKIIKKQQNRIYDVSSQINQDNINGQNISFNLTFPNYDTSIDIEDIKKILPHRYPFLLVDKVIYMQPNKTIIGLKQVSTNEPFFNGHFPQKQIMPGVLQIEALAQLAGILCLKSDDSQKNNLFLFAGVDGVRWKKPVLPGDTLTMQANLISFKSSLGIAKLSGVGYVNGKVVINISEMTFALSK

LdTopIB = conditions: ref Carballeira et al., cited from earlier work
hTopIB [4] = target: T2, hTopIB (Homo sapiens, UniProt P11387); conditions: read-out: hTopIB EC50; relaxation activity; ref Carballeira et al., 2012; cited from earlier work
T2 sequence (P11387 1-765): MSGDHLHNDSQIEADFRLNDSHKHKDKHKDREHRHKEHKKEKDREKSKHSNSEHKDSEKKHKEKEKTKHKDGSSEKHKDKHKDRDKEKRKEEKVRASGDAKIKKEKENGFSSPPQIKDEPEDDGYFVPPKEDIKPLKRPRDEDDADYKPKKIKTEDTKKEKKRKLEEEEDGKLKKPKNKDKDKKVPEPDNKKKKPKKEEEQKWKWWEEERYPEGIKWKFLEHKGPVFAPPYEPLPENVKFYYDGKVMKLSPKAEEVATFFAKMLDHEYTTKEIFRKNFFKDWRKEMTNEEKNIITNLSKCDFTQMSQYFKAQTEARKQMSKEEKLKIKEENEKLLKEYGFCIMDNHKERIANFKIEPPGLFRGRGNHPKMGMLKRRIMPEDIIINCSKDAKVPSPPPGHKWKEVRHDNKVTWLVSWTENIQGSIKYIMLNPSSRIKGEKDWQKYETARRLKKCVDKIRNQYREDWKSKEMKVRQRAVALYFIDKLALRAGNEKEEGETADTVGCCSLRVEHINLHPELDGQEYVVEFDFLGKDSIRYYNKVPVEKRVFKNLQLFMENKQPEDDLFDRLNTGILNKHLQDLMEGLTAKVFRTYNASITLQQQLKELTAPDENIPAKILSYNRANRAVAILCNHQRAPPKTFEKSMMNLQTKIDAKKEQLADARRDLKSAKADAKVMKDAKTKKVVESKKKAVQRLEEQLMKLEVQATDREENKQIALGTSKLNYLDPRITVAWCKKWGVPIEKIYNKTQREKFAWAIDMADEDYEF

PfFabG = PfFabG (Plasmodium falciparum, UniProt Q8I2S7); assay: biochemical
P. falciparum K1 [5] = assay: Toxicity to P. falciparum K1 strain; assay type: cell-based, Plasmodium falciparum; conditions: Plasmodium falciparum, K1, read-out: IC50 P. falciparum K1
PfFabI [6] = target: T3, PfFabI (Plasmodium falciparum, UniProt Q9BH77); assay: Inhibition of PfFabI; assay type: biochemical
T3 sequence (Q9BH77 22-432): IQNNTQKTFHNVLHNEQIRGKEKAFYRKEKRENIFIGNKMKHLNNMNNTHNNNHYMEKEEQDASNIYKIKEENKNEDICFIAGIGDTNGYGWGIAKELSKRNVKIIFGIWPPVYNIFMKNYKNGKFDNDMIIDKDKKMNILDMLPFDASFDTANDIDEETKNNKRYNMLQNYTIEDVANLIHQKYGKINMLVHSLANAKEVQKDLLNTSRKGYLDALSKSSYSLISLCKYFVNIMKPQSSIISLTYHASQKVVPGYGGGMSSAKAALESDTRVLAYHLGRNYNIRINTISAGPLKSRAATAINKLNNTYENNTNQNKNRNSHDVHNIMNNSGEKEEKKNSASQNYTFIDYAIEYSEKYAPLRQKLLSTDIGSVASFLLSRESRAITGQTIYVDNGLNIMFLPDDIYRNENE

P. falciparum K1 [7] = conditions: ref Suksamrarn et al., 2005; cited from earlier work
[8] = test system: FCR3 strain of P. falciparum; conditions: ref Krugliak et al., 1995; cited from earlier work
P. falciparum = conditions: in words; ref Kumaratilake et al., 1992; 1997; cited from earlier work
[9] = test system: Mycobacterium tuberculosis H37Rv; conditions: ref Morbidoni et al., 2006; cited from earlier work
[10] = test system: hepatoma 7288 (HTC) cells; conditions: ref Upreti et al., 1981; cited from earlier work
Escherichia coli = conditions: in words; ref Konthikamee et al., 1982; cited from earlier work
PfFabI [11] = target: T3, PfFabI; conditions: with respect to crotonyl-CoA and the cofactor NADH; ref Tasdemir et al., 2010; cited from earlier work
[12] = test system: Leishmania infantum promastigotes; conditions: read-out: IC50 Leishmania infantum promastigotes; ref Carballeira et al., 2012; cited from earlier work
Staphylococcus aureus = conditions: ref Konthikamee et al., 1982; cited from earlier work
hTopIB [13] = target: T2, hTopIB; assay: Inhibition of relaxation activity of hTopIB; assay type: biochemical
Pseudomonas aeruginosa = conditions: in words; ref Konthikamee et al., 1982; cited from earlier work
[14] = test system: InhA, the enoyl-ACP reductase; conditions: in words; ref Morbidoni et al., 2006; cited from earlier work
Neisseria flava = conditions: ref Konthikamee et al., 1982; cited from earlier work
PfFabZ [15] = target: T1, PfFabZ; conditions: with respect to the substrate; ref Tasdemir et al., 2010; cited from earlier work
Bacteroides fragilis = conditions: ref Konthikamee et al., 1982; cited from earlier work
[16] = read-out: LdTopIB EC50, relaxation activity, 2012

Structure (SMILES): CCCCCCCCCCCCCCCCC(=O)O [n-heptadecanoic acid, reference compound]
- Effectiveness towards L. donovani [1]: not effective

Structure (SMILES): CCCCCCCCCCCC#CC(=O)O [2-TDA, 2-tetradecynoic acid]
- IC50 [2]: > 100 µM
- MIC against M. smegmatis mc^2 155 (M. smegmatis mc^2 155): 266 µM (≈ 59.7 µg/mL)
- IC50 (PfFabZ [3]): 15.6 µM
- IC50 [1]: 24.7 µM
- EC50 (LdTopIB; [16]): 67.8 ± 1.1 µM
- EC50 (hTopIB [4]): > 100 µM
- IC50 (PfFabG): 24.5 µM
- IC50 (P. falciparum K1 [5]): 122 µM
- IC50 (PfFabI [6]): 5.3 µM

Structure (SMILES): C=CCCC#CCCCCCCCCCCCC(=O)O [scleropyric acid]
- IC50 K1 multidrug-resistant P. falciparum (P. falciparum K1 [7]): 7.2 µg/mL (≈ 25.9 µM)

Structure (SMILES): CCCCCCCCCCCCCC#CCCC(=O)O [4-Octadecynoic acid]
- MIC against M. smegmatis mc^2 155 (M. smegmatis mc^2 155): >300 µM

Structure (SMILES): CCCCCCCCCCCCC#CCC(=O)O [3-Hexadecynoic acid]
- MIC against M. smegmatis mc^2 155 (M. smegmatis mc^2 155): 20 µM (≈ 5.05 µg/mL)

Structure (SMILES): CCCCCCCC/C=C\CCCCCCCC(=O)O [oleic acid, 9-cis-Octadecenoic acid, reference compound]
- IC50 killing FCR3 strain of P. falciparum [8]: 23 µg/mL
- Motility of L. donovani promastigotes [1]: no effect
- MIC L. donovani promastigotes [1]: 90 µM (≈ 25.4 µg/mL)
- Parasite killing of P. falciparum (P. falciparum): negligible parasite killing

Structure (SMILES): CCCCCCCCCCC#CCCCC(=O)O [5-Hexadecynoic acid]
- MIC against M. smegmatis mc^2 155 (M. smegmatis mc^2 155): 80 µM (≈ 20.2 µg/mL)

Structure (SMILES): CC[C@@]1(O)C(=O)OCc2c1cc1n(c2=O)Cc2cc3ccccc3nc2-1 [CPT, camptothecin, reference compound]
- IC50 [2]: 0.62 ± 0.13 µM
- EC50 (LdTopIB; [16]): 0.67 ± 0.08 µM

Structure (SMILES): CCCCCCCCCC#CC(=O)O [2-Dodecynoic acid]
- MIC against M. smegmatis mc^2 155 (M. smegmatis mc^2 155): >300 µM

Structure (SMILES): CCCCCCCCCCCCCCCC(=O)O [16:0, hexadecanoic acid, reference compound]
- IC50 (PfFabZ [3]): > 100 µM
- Motility of L. donovani promastigotes [1]: inhibited the motility
- IC50 (PfFabG): > 100 µM
- IC50 (P. falciparum K1 [5]): > 100 µM
- IC50 (PfFabI [6]): > 100 µM

Structure (SMILES): CCCCC/C=C\C/C=C\CCCCCCCC(=O)O [linoleic acid]
- IC50 killing FCR3 strain of P. falciparum [8]: 76 µg/mL

Structure (SMILES): CCCCCCCCCCCCCCCCC#CC(=O)O [2-Nonadecynoic acid]
- MIC against M. smegmatis mc^2 155 (M. smegmatis mc^2 155): 35 µM (≈ 10.3 µg/mL)
- MIC against Mycobacterium tuberculosis H37Rv [9]: 20 to 25 µM

Structure (SMILES): CCCCCCCCCCCCCCC#CCC(=O)O [3-Octadecynoic acid]
- MIC against M. smegmatis mc^2 155 (M. smegmatis mc^2 155): 36 µM (≈ 10.1 µg/mL)

Structure (SMILES): CCCCCCCCCCCCCC#CCCCCC(=O)O [6-icosynoic acid]
- EC50 L. donovani promastigotes [1]: 1 to 6 µg/mL
- EC50 (LdTopIB; read-out: EC50 LdTopIB, 2009): 36 to 49 µM

Structure (SMILES): CC/C=C\C/C=C\C/C=C\CCCCCCCC(=O)O [linolenic acid]
- IC50 killing FCR3 strain of P. falciparum [8]: 92 µg/mL

Structure (SMILES): CCCCCCCCCCCCCCCCCCCC#CC(=O)O [2-Docosynoic acid]
- MIC against M. smegmatis mc^2 155 (M. smegmatis mc^2 155): >300 µM

Structure (SMILES): CCCCCCCCCCCC#CCCC(=O)O [4-Hexadecynoic acid]
- MIC against M. smegmatis mc^2 155 (M. smegmatis mc^2 155): 30 µM (≈ 7.57 µg/mL)

Structure (SMILES): CCCCCCCCCCCCCCCCCC#CC(=O)O [2-Eicosynoic acid]
- MIC against M. smegmatis mc^2 155 (M. smegmatis mc^2 155): >300 µM

Structure (SMILES): CCCCCCCCCCC#CCCCCC(=O)O [6-heptadecynoic, 6-heptadecynoic acid]
- EC50 L. donovani promastigotes [1]: 1 to 6 µg/mL

Structure (SMILES): CCCCCCCCCC(=O)O [n-decanoic acid]
- Motility of L. donovani promastigotes [1]: inhibited the motility

Structure (SMILES): CCCCCCCCCCCCCCCCCCCC(=O)O [n-eicosanoic acid, reference compound]
- Effectiveness towards L. donovani [1]: not effective

Structure (SMILES): CCCCCCCCCCCC(=O)O [n-dodecanoic acid]
- Motility of L. donovani promastigotes [1]: inhibited the motility

Structure (SMILES): CCCCCCCCCCCCCC#CC(=O)O [2-HDA, 2-hexadecynoic acid]
- IC50 [2]: > 100 µM
- MIC against M. smegmatis mc^2 155 (M. smegmatis mc^2 155): 10 µM (≈ 2.52 µg/mL)
- LD50, growth of cultured hepatoma 7288 (HTC) cells [10]: 35 to 85 µM
- Effectiveness against Escherichia coli (Escherichia coli): not effective
- Mode of inhibition of PfFabI (PfFabI [11]): non-competitive
- IC50 [1]: 17.8 µM
- EC50 (LdTopIB; [16]): 28.7 ± 1.3 µM
- EC50 (hTopIB [4]): > 100 µM
- IC50 [12]: 14.9 µM
- MIC against Mycobacterium tuberculosis H37Rv [9]: 20 to 25 µM
- IC50 (PfFabG; read-out: IC50 PfFabG, Carballeira and Tasdemir, unpublished data): 13.9 µM
- MIC Staphylococcus aureus (Staphylococcus aureus): 21.4 µM (≈ 5.4 µg/mL)
- IC50 (P. falciparum K1 [5]): 41.2 µM
- IC50 (hTopIB [13]): 361 ± 1 µM
- Effectiveness against Pseudomonas aeruginosa (Pseudomonas aeruginosa): not effective
- Inhibition of InhA [14]: able to inhibit
- MIC Neisseria flava (Neisseria flava): 21.4 µM (≈ 5.4 µg/mL)
- IC50 (PfFabI [6]; read-out: IC50 PfFabI, Carballeira and Tasdemir, unpublished data): 1.5 µM
- Mode of inhibition of PfFabZ (PfFabZ [15]): competitively inhibit
- MIC Bacteroides fragilis (Bacteroides fragilis): 21.4 µM (≈ 5.4 µg/mL)

Structure (SMILES): CCCCCCCCCCCCC#CCCCC(=O)O [5-Octadecynoic acid]
- MIC against M. smegmatis mc^2 155 (M. smegmatis mc^2 155): 360 µM (≈ 101 µg/mL)

Structure (SMILES): CCCCCCCCCCCCCCCCCC(=O)O [octadecanoic acid]
- MIC L. donovani promastigotes [1]: 1390 µM (≈ 395 µg/mL)
